Data reported in patent US11987586B1 (TAKEDA PHARMACEUTICAL COMPANY LIMITED, priority 2022, dated 2024).

These molecules were tested against T1, human OX2 receptor (Homo sapiens, UniProt O43614) (assay: Measurement of orexin type 2 receptor agonist activity (calcium fluorescence, Fluo-4, FDSS)). Details: 3 uM test compound; CHO cells expressing human OX2 receptor; DMSO = 0%, 10 nM orexin A (human) = 100%.
T1 construct: expressed in transfected cells
T1 sequence (O43614 1-444): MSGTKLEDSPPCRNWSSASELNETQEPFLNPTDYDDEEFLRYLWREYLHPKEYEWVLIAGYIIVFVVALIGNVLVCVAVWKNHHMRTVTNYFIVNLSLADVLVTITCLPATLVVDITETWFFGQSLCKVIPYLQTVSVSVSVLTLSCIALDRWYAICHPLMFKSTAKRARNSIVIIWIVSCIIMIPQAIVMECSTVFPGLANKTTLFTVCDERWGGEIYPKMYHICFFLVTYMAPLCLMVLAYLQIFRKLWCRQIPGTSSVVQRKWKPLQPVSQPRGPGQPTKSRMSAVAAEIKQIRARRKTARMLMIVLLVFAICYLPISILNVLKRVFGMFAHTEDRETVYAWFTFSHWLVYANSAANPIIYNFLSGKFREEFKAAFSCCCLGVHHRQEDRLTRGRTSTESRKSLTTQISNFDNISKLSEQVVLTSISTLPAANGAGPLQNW
Type: cell-based
Procedure: In order to obtain cell clones that stably express human orexin type 2 receptor, human orexin type 2 (residues 1-444, NCBI Reference Sequence: AK314279) was constructed in a pcDNA3.1 (+) vector (Invitrogen) to express in mammalian cells. This plasmid DNA was transfected into CHO-K1 cells by electroporation, and stable clones were obtained by limiting dilution using resistance to G418 as a selection marker.
CHO cells in which human OX2 receptor was forcibly expressed were seeded at 10,000 cells/well into a 384-well black transparent bottom plate (BD falcon), and were incubated at 37° C., 5% CO2 for 1 day after incubation at room temperature for 30 minutes. After removing the cell plate medium, assay buffer containing calcium indicator A (HBSS (Thermo Fisher Scientific), 20 mM HEPES (Thermo Fisher Scientific), 0.1% BSA (Sigma-Aldrich), 2.5 μg/mL Fluo-4 AM (Dojin Kagaku), 0.08% Pluronic F127 (Dojin Kagaku), 1.25 mM probenecid (Dojin Kagaku)) was added at 30 μL/well. After incubation in a 5% CO2 incubator at 37° C. for 30 minutes, it was incubated at room temperature for another 30 minutes. Add 10 μL/well of the test compound diluted with assay buffer B (HBSS, 20 mM HEPES, 0.1% BSA), and use FDSS μCELL (Hamamatsu Photonics) to measure the fluorescence value every 1 second for 1 minute, and then every 2 seconds for 1 minute. It was measured for 1 minute and 40 seconds. The amount of fluorescence value when DMSO is added instead of the test compound is defined as 0%, and the amount of fluorescence value when orexin A (human) (Peptide Institute) with a final concentration of 10 nM is added is defined as 100%. The activity (%) of the test compound was calculated.

Structure (SMILES) | OX2R agonist activity (3 uM, %) [%]
CS(=O)(=O)N[C@@H]1CN2C(=O)N(c3noc4cc(Cl)c(F)c(-c5c(F)cc(F)cc5F)c34)C[C@@H]2C1(F)F [Example 40, N-{(6R,7aR)-2-[6-chloro-5-fluoro-4-(2,4,6-trifluorophenyl)-1,2-benzoxazol-3-yl]-7,7-difluoro-3-oxohexahydro-1H-pyrrolo[1,2-c]imidazol-6-yl}methanesulfonamide] | 103
CCS(=O)(=O)N[C@H]1C[C@H]2CN(c3noc4cc(OC)cc(-c5c(F)cccc5F)c34)C(=O)N2C1 [Example 41, N-{(6S,7aS)-2-[4-(2,6-difluorophenyl)-6-methoxy-1,2-benzoxazol-3-yl]-3-oxohexahydro-1H-pyrrolo[1,2-c]imidazol-6-yl}ethanesulfonamide] | 100
O=C1N(c2noc3cccc(-c4c(F)cccc4F)c23)C[C@@H]2C[C@H](NS(=O)(=O)C(F)F)CN12 [Example 43, N-{(6S,7aS)-2-[4-(2,6-difluorophenyl)-1,2-benzoxazol-3-yl]-3-oxohexahydro-1H-pyrrolo[1,2-c]imidazol-6-yl}-1,1-difluoromethanesulfonamide] | 100
CS(=O)(=O)N[C@@H]1Cn2c(cn(-c3noc4cc(F)cc(-c5c(F)cccc5F)c34)c2=O)C1(F)F [Example 46, N-{(6R)-2-[4-(2,6-difluorophenyl)-6-fluoro-1,2-benzoxazol-3-yl]-7,7-difluoro-3-oxo-2,5,6,7-tetrahydro-3H-pyrrolo[1,2-c]imidazol-6-yl}methanesulfonamide] | 102
CS(=O)(=O)N[C@@H]1CN2C(=O)N(c3noc4ccc(F)c(-c5c(F)cc(F)cc5F)c34)C[C@@H]2C1(F)F [Example 47, N-{(6R,7aR)-7,7-Difluoro-2-[5-fluoro-4-(2,4,6-trifluorophenyl)-1,2-benzoxazol-3-yl]-3-oxohexahydro-1H-pyrrolo[1,2-c]imidazol-6-yl}methanesulfonamide] | 91
CCS(=O)(=O)N[C@H]1C[C@@H]2CN(c3noc4cccc(-c5c(F)cccc5F)c34)C(=O)N2C1 [Example 49, N-{(6S, 7aR)-2-[4-(2,6-difluorophenyl)-1,2-benzoxazol-3-yl]-3-oxohexahydro-1H-pyrrolo[1,2-c]imidazol-6-yl}ethanesulfonamide] | 94
CCS(=O)(=O)N[C@H]1C[C@H]2CN(c3nsc4cccc(-c5c(F)cccc5F)c34)C(=O)N2C1 [Example 55, N-{(6S,7aS)-2-[4-(2,6-difluorophenyl)-1,2-benzothiazol-3-yl]-3-oxohexahydro-1H-pyrrolo[1,2-c]imidazol-6-yl}ethanesulfonamide] | 108
CCS(=O)(=O)N[C@H]1C[C@H]2CN(c3noc4cc(C5CC5)cc(-c5c(F)cccc5F)c34)C(=O)N2C1 [Example 56, N-{(6S,7aS)-2-[6-cyclopropyl-4-(2,6-difluorophenyl)-1,2-benzoxazol-3-yl]-3-oxohexahydro-1H-pyrrolo[1,2-c]imidazol-6-yl}ethanesulfonamide] | 99
CCS(=O)(=O)N[C@@H]1CN2C(=O)N(c3noc4cccc(-c5c(F)cccc5F)c34)C[C@]2(C)C1 [Example 57, N-{(6S,7aS)-2-[4-(2,6-difluorophenyl)-1,2-benzoxazol-3-yl]-7a-methyl-3-oxohexahydro-1H-pyrrolo[1,2-c]imidazol-6-yl}ethanesulfonamide] | 88
CCS(=O)(=O)N[C@H]1C[C@H]2CN(c3noc4c(Cl)ccc(-c5c(F)cccc5F)c34)C(=O)N2C1 [Example 58, N-{(6S,7aS)-2-[7-chloro-4-(2,6-difluorophenyl)-1,2-benzoxazol-3-yl]-3-oxohexahydro-1H-pyrrolo[1,2-c]imidazol-6-yl}ethanesulfonamide] | 88
CCS(=O)(=O)N[C@H]1C[C@H]2CN(c3noc4cccc(-c5c(F)cc(F)cc5F)c34)C(=O)N2C1 [Example 65, N-{(6S,7aS)-3-oxo-2-[4-(2,4,6-trifluorophenyl)-1,2-benzoxazol-3-yl]hexahydro-1H-pyrrolo[1,2-c]imidazol-6-yl}ethanesulfonamide] | 99
CCS(=O)(=O)N[C@H]1C[C@H]2CN(c3noc4ccc(F)c(-c5c(F)cccc5F)c34)C(=O)N2C1 [Example 66, N-{(6S,7aS)-2-[4-(2,6-difluorophenyl)-5-fluoro-1,2-benzoxazol-3-yl]-3-oxohexahydro-1H-pyrrolo[1,2-c]imidazol-6-yl}ethanesulfonamide] | 97

More lines, now with the values ahead:

OX2R agonist activity (3 uM, %) [%] | Structure (SMILES)
97 | CCS(=O)(=O)N[C@@H]1CN2C(=O)N(c3noc4cc(Cl)cc(-c5c(F)cccc5F)c34)C[C@@H]2C1(F)F [Example 67, N-{(6R,7aR)-2-[6-chloro-4-(2,6-difluorophenyl)-1,2-benzoxazol-3-yl]-7,7-difluoro-3-oxohexahydro-1H-pyrrolo[1,2-c]imidazol-6-yl}ethanesulfonamide]
109 | CCS(=O)(=O)N[C@@H]1Cn2c(cn(-c3noc4cc(Cl)cc(-c5c(F)cccc5F)c34)c2=O)C1(F)F [Example 68, N-{(6R)-2-[6-chloro-4-(2,6-difluorophenyl)-1,2-benzoxazol-3-yl]-7,7-difluoro-3-oxo-2,5,6,7-tetrahydro-3H-pyrrolo[1,2-c]imidazol-6-yl}ethanesulfonamide]
96 | CCS(=O)(=O)N[C@@H]1CN2C(=O)N(c3noc4cc(F)cc(-c5c(F)cccc5F)c34)C[C@@H]2C1(F)F [Example 69, N-{(6R,7aR)-2-[4-(2,6-difluorophenyl)-6-fluoro-1,2-benzoxazol-3-yl]-7,7-difluoro-3-oxohexahydro-1H-pyrrolo[1,2-c]imidazol-6-yl}ethanesulfonamide]
105 | CCS(=O)(=O)N[C@@H]1Cn2c(cn(-c3noc4cccc(-c5c(F)cccc5F)c34)c2=O)C1(C)C [Example 70, N-{(6S)-2-[4-(2,6-difluorophenyl)-1,2-benzoxazol-3-yl]-7,7-dimethyl-3-oxo-2,5,6,7-tetrahydro-3H-pyrrolo[1,2-c]imidazol-6-yl}ethanesulfonamide]
98 | CS(=O)(=O)N[C@@H]1CN2C(=O)N(c3noc4cc(F)cc(-c5c(F)cccc5F)c34)C[C@@H]2C1(F)F [Example 72, N-{(6R,7aR)-2-[4-(2,6-Difluorophenyl)-6-fluoro-1,2-benzoxazol-3-yl]-7,7-difluoro-3-oxohexahydro-1H-pyrrolo[1,2-c]imidazol-6-yl}methanesulfonamide]
105 | CS(=O)(=O)N[C@@H]1Cn2c(cn(-c3noc4cc(Cl)cc(-c5c(F)cccc5F)c34)c2=O)C1(F)F [Example 73, N-{(6R)-2-[6-chloro-4-(2,6-difluorophenyl)-1,2-benzoxazol-3-yl]-7,7-difluoro-3-oxo-2,5,6,7-tetrahydro-3H-pyrrolo[1,2-c]imidazol-6-yl}methanesulfonamide]
104 | CS(=O)(=O)N[C@@H]1Cn2c(cn(-c3noc4cc(C(F)(F)F)cc(-c5c(F)cccc5F)c34)c2=O)C1(F)F [Example 74, N-{(6R)-2-[4-(2,6-difluorophenyl)-6-(trifluoromethyl)-1,2-benzoxazol-3-yl]-7,7-difluoro-3-oxo-2,5,6,7-tetrahydro-3H-pyrrolo[1,2-c]imidazol-6-yl}methanesulfonamide]
99 | CS(=O)(=O)N[C@@H]1Cn2c(cn(-c3noc4ccc(F)c(-c5c(F)cccc5F)c34)c2=O)C1(F)F [Example 75, N-{(6R)-2-[4-(2,6-Difluorophenyl)-5-fluoro-1,2-benzoxazol-3-yl]-7,7-difluoro-3-oxo-2,5,6,7-tetrahydro-3H-pyrrolo[1,2-c]imidazol-6-yl}methanesulfonamide]
105 | CCS(=O)(=O)N[C@@H]1Cn2c(cn(-c3noc4ccc(F)c(-c5c(F)cccc5F)c34)c2=O)C1(F)F [Example 76, N-{(6R)-2-[4-(2,6-difluorophenyl)-5-fluoro-1,2-benzoxazol-3-yl]-7,7-difluoro-3-oxo-2,5,6,7-tetrahydro-3H-pyrrolo[1,2-c]imidazol-6-yl}ethanesulfonamide]
